The record followed here is patent US20120329158A1, “Methods of Plant Regeneration and Apparatus Therefor” (priority 2010, published 2012).

This test deals with sugarcane artificial seeds (Q208 and KQ228). Description: Germination and conversion of sugarcane artificial seeds into plantlets in liquid MS medium with or without auxins. Conditions: MS medium supplemented with small amounts of auxin; varieties Q208 and KQ228 (FIG. 34). As to the method:
Thirty-six artificial plant seeds (approx 15 mL) were placed into a sterile 250 mL Erlenmeyer flask with 85 mL of sterile MS liquid with 30 gL^−1 sucrose. Flasks were placed on the gyratory shaker trays at 120 rpm, 27° C.±1° C., and a 16 h photoperiod provided by cool white fluorescent tubes for 2-3 weeks. The media was decanted off and replaced every 3-4 days.
In this medium the artificial plant seeds germinated and produced normal plantlets within 3 weeks (FIG. 5). The seeds change from a transparent gel bead to a brown-black colour within the first few days of being placed into liquid culture. Within 7-10 days there is shoot production from the seeds and within two weeks the shoots are elongating and root production outside of the artificial plant seed begins. Within 3 weeks the plantlet has fully developed, with both extensive shoot and root production, outside of the gel. Variations in the rate of plantlet emergence are to be expected with different genotypes (FIG. 6 and FIG. 7). Typical growth conditions for liquid culture are 120 rpm and 27° C. with a 16 hour photoperiod.
In general, plantlets produced with growth regulators were stunted if hormone levels were 1 μM compared to those obtained from growth regulator-tee MS medium. As such, MS is typically used for the liquid culture medium. Regeneration of artificial plant seeds into plantlets at a rate of 70-90% is achievable. […]

Molecules are shown by their SMILES.

Turning to `O=C(O)CCCc1c[nH]c2ccccc12` [indole-3 butyric acid (IBA), indole-3-butyric acid], the “conversion of artificial seeds to plantlets” value is listed as “improved conversion of seeds to plantlets”. With `O=C(O)Cc1cccc2ccccc12` [α-naphthaleneacetic acid (NAA), α-naphthaleneacetic acid], the “conversion of artificial seeds to plantlets” value is on record as “improved conversion of seeds to plantlets”.
